Experimental data taken from the supplement of paper PMC11208160.

Assay: recombinant barcode read abundance after kanamycin selection (control-corrected) (log10(CPM+1)); higher = more efficient recombination; sequences stand for … in AGTGCAGAGAAAATCGGCCAGTTTTCTCTGCCTGCAGTCCGCATGCCGT…AGATTTATGCAGCGGACTGCCTTTCTCCCAAAGTGATAAACCGGACAGTATCATGGACCGGTTTTCCCGGTAATCCGTATTTGCAAGGTTGGTTTCACT; site = the 11-nt target
Outline: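 In E. coli, a pooled library matched targets to IS621 bridge RNA target-binding loops and was introduced alongside a donor plasmid. Cells went onto chloramphenicol/ampicillin/kanamycin with 0.1 mM IPTG or onto chloramphenicol/ampicillin LB agar as control, in duplicate. Recombination efficiency, from recombinant-junction barcodes as counts per million, is averaged and control-corrected. It is reported as log10(CPM+1).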
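Further: IS621 recombinase and bridge RNA in Escherichia coli cells.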

Row | Sequence | recombinant barcode read abundance (log10)
1 | TATTTGTCTTGGGTTCTAACCTGTTGCTA (site TAGTCGTCTTA) | 0.148
2 | CTTGGAGCTTGGGTTCTAACCTGTTGCCT (site CTTGGAACTAG) | 0.365
3 | TTGGCCGCTTGGGTTCTAACCTGTTGCCT (site TTGGACGCTAG) | 0.109
4 | AACGTGTCTTGGGTTCTAACCTGTTGCCT (site AAAGTGTCTAG) | 0.375
5 | GGGGCTACTTGGGTTCTAACCTGTTGCAC (site GGGGCTACTAG) | 0.58
6 | GGATTCCCTTGGGTTCTAACCTGTTGCCA (site GGATTCCCTTG) | 1.15
7 | ATGCCTACTTGGGTTCTAACCTGTTGCCT (site ATGCCCACTAG) | 0.0532
8 | CCGTCTACTTGGGTTCTAACCTGTTGCTG (site CCGTCTACTTA) | 0.111
9 | TAAGGTACTTGGGTTCTAACCTGTTGCTT (site TAATGTACTAA) | 0.0967
10 | AGAGGAGCTTGGGTTCTAACCTGTTGCAG (site AGAGATGCTCT) | 0.115
11 | CAGACTCCTTGGGTTCTAACCTGTTGCCT (site TAGACTACTAG) | 0.186
12 | TCCTATGCTTGGGTTCTAACCTGTTGCTA (site TCCTATGCTTA) | 0.0755
13 | AGTAATTCTTGGGTTCTAACCTGTTGCCT (site AGCAATTCTAG) | 0.0536
14 | CGCGAATCTTGGGTTCTAACCTGTTGCTT (site CGCGGGTCTAA) | 0.168
15 | CTGGTGCCTTGGGTTCTAACCTGTTGCCT (site CTGGTGCCTAG) | 1.46
16 | CTAACCTCTTGGGTTCTAACCTGTTGCTA (site CTAACCTCTAA) | 0.0338
17 | GGCACGGCTTGGGTTCTAACCTGTTGCCT (site GGCACCGCTAG) | 0.0995
18 | CTCGTACCTTGGGTTCTAACCTGTTGCGG (site CTCGTACCTCC) | 2.52

Row | Sequence | recombinant barcode read abundance (log10)
19 | GAGCGAGCTTGGGTTCTAACCTGTTGCTG (site GAGCGAGCTCT) | 1.25
20 | GATATAGCTTGGGTTCTAACCTGTTGCCT (site GATATAGCTAG) | 1.06
21 | CGAGGGTCTTGGGTTCTAACCTGTTGCCT (site CGAGGGGCTAG) | 0.0907
22 | GGTGAGACTTGGGTTCTAACCTGTTGCCA (site AGTGGGACTTG) | 0.235
23 | TGCTGTCCTTGGGTTCTAACCTGTTGCCT (site TGCTGTACTAG) | 0.2
24 | CGCCTCTCTTGGGTTCTAACCTGTTGCCT (site CGCCTCTCTAG) | 0.0707
25 | TGAAAGCCTTGGGTTCTAACCTGTTGCTT (site TGAAAGCCTAA) | 0.215
26 | GGTCTGCCTTGGGTTCTAACCTGTTGCCT (site AGTCTGCCTAG) | 0.171
27 | TACCCTACTTGGGTTCTAACCTGTTGCCT (site CACCCTACTAG) | 0.0188
28 | ACACTCCCTTGGGTTCTAACCTGTTGCCT (site ACACTCCCTAG) | 0.294
29 | GACTCTCCTTGGGTTCTAACCTGTTGCTT (site GACTCTCCTAC) | 0.0892
30 | AGGGAGACTTGGGTTCTAACCTGTTGCCA (site AGGGAGACTTG) | 2.49
31 | CACGAGTCTTGGGTTCTAACCTGTTGCCT (site CACGAGACTAG) | 0.0562
32 | ATGCCTCCTTGGGTTCTAACCTGTTGCTT (site ATGCCTCCTAA) | 0.165
33 | GTGGTACCTTGGGTTCTAACCTGTTGCAT (site GTGGTACCTAT) | 2.48
34 | ACTGATTCTTGGGTTCTAACCTGTTGCCT (site ACTGATGCTAG) | 0.0541
35 | GGCAAGACTTGGGTTCTAACCTGTTGCCT (site GGCAAGACTAG) | 0.185
36 | CCATCTCCTTGGGTTCTAACCTGTTGCCT (site CCATCTCCTAG) | 0.492
